Experimental data from US20120309676A1, “Lantibiotic Salts” (priority 2010, published 2012).
Structures can show the parent of a compound that is named as a salt.

Experiments:
[1] = tested on: Methicillin Resistant Staphylococcus aureus (MRSA, ATCC 33591); assay: Neutropaenic mouse thigh infection model; format: in vivo
Experimental: In vivo efficacy of compounds of the present invention in the treatment of bacterial tissue infections was evaluated using a neutropaenic mouse thigh model.
Groups of 6 male ICR mice weighing 24±2 g were used. Test animals were immunosuppressed by 2 intraperitoneal injections of cyclophosphamide, the first at 150 mg/Kg 4 days before infection (day-4) and the second at 100 mg/Kg 1 day before infection (day-1). On day 0, individual animals were inoculated intramuscularly (IM) into the right thigh of test animals with 1.15×10^8 CFU/mouse of Methicillin Resistant Staphylococcus aureus (MRSA, ATCC 33591) suspended in 100 μL of sterile PBS, pH 7.4. Vehicle and test substances were administered intravenously (IV) at a dose volume of 6 mL/Kg, 2 and 14 hours after thigh infection. Example 1 and vancomycin were dissolved in 15% hydroxypropyl-β-cyclodextrin/4.4% glucose/1.5 mM potassium phosphate buffer, pH 7.0 and administered at doses of 5, 10, 20, 30 and 40 mg/Kg. At 26 hours after inoculation, muscle of the right thigh of each test mouse was harvested. From an additional group with no treatment, muscle of the right thigh was harvested at 2 hours after inoculation for the basal CFU determination. The removed muscle tissues were then homogenized in 3-4 mL of PBS, pH 7.4 with a ceramic mortar. Homogenates of 0.1 mL were used for serial 10-fold dilutions and plated on Mueller Hinton broth in 1.5% Bacto agar for CFU determination. […] Results (mean cfu/g) are graphically represented in FIG. 2.

[2] = tested on: Methicillin Resistant Staphylococcus aureus (MRSA, ATCC 33591); assay: Neutropaenic mouse thigh infection model, further experiment; format: in vivo; settings: IV 2 and 14 h after infection, 2.5-50 mg/Kg, FIG. 3
Experimental: In a further experiment, groups of 6 male ICR mice weighing 24±2 g were used. Test animals were immunosuppressed by 2 intraperitoneal injections of cyclophosphamide, the first at 150 mg/Kg 4 days before infection (day-4) and the second at 100 mg/Kg 1 day before infection (day-1). On day 0, individual animals were inoculated intramuscularly (IM) into the right thigh of test animals with 1.5×10^5 CFU/mouse of Methicillin Resistant Staphylococcus aureus (MRSA, ATCC 33591) suspended in 100 μL of sterile PBS, pH 7.4. Vehicle and test substances were administered intravenously (IV) at a dose volume of 8 mL/Kg, 2 and 14 hours after thigh infection. Example 1 was dissolved in 5% dextrose/1 mM potassium phosphate, pH 5.0 and administered at doses of 2.5, 5, 10, 15, 25 and 50 mg/Kg. At 26 hours after inoculation, muscle of the right thigh of each test mouse was harvested. From an additional group with no treatment, muscle of the right thigh was harvested at 2 hours after inoculation for the basal CFU determination. The removed muscle tissues were then homogenized in 3-4 mL of PBS, pH 7.4 with a ceramic mortar. Homogenates of 0.1 mL were used for serial 10-fold dilutions and plated on Mueller Hinton broth in 1.5% Bacto agar for CFU determination.

[3] = tested on: Staphylococcus aureus methicillin resistant ATCC 33591; assay: Mouse bacteraemia model, SC dosing; format: in vivo
Experimental: Groups of 6 male CD-1 (Crl.) derived mice weighing 24±2 g were used. Mice were inoculated intraperitoneally (IP) with an LD90-100 of Staphylococcus aureus methicillin resistant ATCC 33591 (1.1×10^7 CFU/mouse) in 0.5 mL of BHI broth containing 5% mucin. Example 1 and vancomycin were dissolved in 15% HPbetaCD/4.4% glucose/0.5 mM KH2PO4, pH 5.0 and doses of 1, 3, 5, 10 and 20 mg/Kg were administered subcutaneously (SC) to test animals at 0, 2 and 24 hour(s) after bacteria challenge. The dosing volume was 5 mL/Kg. Mortality was recorded once daily for 7 days (FIG. 1). The ED50 for each compound was determined by nonlinear regression.

[4] = tested on: Staphylococcus aureus methicillin resistant ATCC 33591; assay: Mouse bacteraemia model, second experiment, IV dosing; format: in vivo; settings: for number of deaths: after 7 days, groups of 6 mice
Experimental: In a second experiment Groups of 6 male CD-1 (Crl.) derived mice weighing 24±2 g were used. Mice were inoculated intraperitoneally (IP) with an LD90-100 of Staphylococcus aureus methicillin resistant ATCC 33591 (1.35×10^8 CFU/mouse) in 0.5 mL of BHI broth containing 5% mucin. Example 1 was dissolved in 5% dextrose/1.5 mM potassium phosphate, pH 5.0 and doses of 1, 3, 5 and 10 mg/Kg were administered intravenously (IV) to test animals at 1 and 13 hour(s) after bacteria challenge. The dosing volume was 5 mL/Kg. Mortality was recorded once daily for 7 days.

[5] = tested on: Methicillin-resistant Staph. epidermidis; assay: MIC susceptibility testing, methicillin-resistant Staph. epidermidis; format: cell-based, S. epidermidis
Experimental: (§1) Susceptibility testing with the exception of Streptococcus pneumoniae was performed by two-fold serial dilutions in Mueller Hinton Broth supplemented with 50 μg/mL Ca^2+. Susceptibility testing of S. pneumoniae was performed by two-fold serial dilutions in Brain-Heart-Infusion Broth supplemented with 50 μg/mL Ca^2+.
(§2) Modal values from up to 6 determinations

[6] = tested on: Vancomycin-intermediate Staphylococcus aureus; assay: MIC susceptibility testing, vancomycin-intermediate Staphylococcus aureus; format: cell-based
Experimental: as §1, §2

Structure (SMILES): CC[C@H](C)[C@@H]1NC(=O)[C@@H]2NC(=O)[C@H](CC(C)C)NC(=O)[C@H](NC(=O)[C@@H]3CSC[C@@H](N)C(=O)N[C@@H](CO)C(=O)NCC(=O)N[C@@H](Cc4c[nH]c5ccccc45)C(=O)N[C@@H](C(C)C)C(=O)N3)[C@H](C)SC[C@H](NC(=O)[C@H](CCC(=O)O)NC1=O)C(=O)NCC(=O)N[C@H]1C(=O)N[C@@H](CC(C)C)C(=O)N[C@@H](C(C)C)C(=O)N[C@@H](CS[C@H]2C)C(=O)N[C@@H](C)C(=O)N[C@H](C(=O)NCc2cc(Cl)cc(Cl)c2)CS[C@H]1C [Example 1, Deoxyactagardine B (3,5-dichlorobenzylamine) monocarboxamide N-methyl glucamine salt]
- antimicrobial effect ([1]; IV at 5, 10, 20, 30 and 40 mg/Kg×2, 2 and 14 h after thigh infection, harvest at 26 h): significant antimicrobial effect
- reduction in CFU/g ([1]; at 10 mg/kg and above, IV ×2, thigh muscle at 26 h): > 1000 fold
- bacterial counts in the thigh tissue [2]: dose dependent reduction
- survival rate ([3]; 3 mg/Kg): 100%
- antimicrobial effect against S. aureus (MRSA) in mice ([3]; 3, 5, 10 and 20 mg/Kg×3, SC): significant antimicrobial effect
- increase in survival rate ([3]; 3, 5, 10 and 20 mg/Kg×3, SC): at least 50%
- estimated ED50 ([3]; CD-1 mice, SC at 0, 2 and 24 h after challenge, mortality over 7 days, nonlinear regression): 1.07 mg/kg
- number of deaths ([4]; 1 mg/kg IV at 1 and 13 h after challenge): 5
- number of deaths ([4]; 3 mg/kg IV at 1 and 13 h after challenge): 4
- number of deaths ([4]; 5 mg/kg IV at 1 and 13 h after challenge): 1
- number of deaths ([4]; 10 mg/kg IV at 1 and 13 h after challenge): 1
- survival of mice after 7 days ([4]; 1, 3, 5 and 10 mg/kg): dose-dependent incease in survival
- MIC ([5]; S. epidermidis 7753921): 8 to 16 µg/mL
- MIC ([5]; S. epidermidis 7755298): 8 µg/mL
- MIC ([5]; S. epidermidis 7765349): 4 µg/mL
- MIC ([5]; S. epidermidis 7864847): <16 µg/mL
- MIC ([5]; S. epidermidis 7865688): 16 µg/mL
- MIC ([5]; S. epidermidis GRL05011): 16 µg/mL
- MIC ([5]; S. epidermidis GRL05012): 8 µg/mL
- MIC ([5]; S. epidermidis GRL05013): 8 to 16 µg/mL
- MIC ([5]; S. epidermidis GRL05014): 8 to 16 µg/mL
- MIC ([5]; S. epidermidis GRL05015): 8 to 16 µg/mL
- MIC ([5]; S. epidermidis GRL05016): 4 to 8 µg/mL
- MIC ([5]; S. epidermidis GRL05017): 16 µg/mL
- MIC ([5]; S. epidermidis GRL05019): 16 µg/mL
- MIC ([5]; S. epidermidis GRL05020): 4 µg/mL
- MIC ([6]; S. aureus 2): 4 µg/mL
- MIC ([6]; S. aureus 26): 4 µg/mL
- MIC ([6]; S. aureus MI): 16 µg/mL
- MIC ([6]; S. aureus Mu3): 8 µg/mL
- MIC ([6]; S. aureus Mu50): 4 µg/mL
- MIC ([6]; S. aureus NJ): 8 µg/mL
- MIC ([6]; S. aureus V99): 4 µg/mL
